Assay results as given in paper PMC12383972, “Oral Pharmacokinetic Evaluation of a Microemulsion-Based Delivery System for Novel A190 Prodrugs” (Biomolecules, 2025).
Values after ≈ are worked out from the molar mass of the structure shown. Where two headings read alike, the source gives them in different places. Blank lines part the entries; values can stand above or below the compound they belong to.

Key:
PPARα = system: PPARα; design: method as in PMID 32096640, PMID 39961437; settings: cited from earlier work
[1] = design: method as in PMID 32582345; settings: preclinical assessment; cited from earlier work
CYP450 = system: CYP450; design: method as in PMID 32582345; settings: preclinical assessment; cited from earlier work
hERG = system: hERG; design: method as in PMID 32582345; settings: preclinical assessment; cited from earlier work
[2] = design: method as in PMID 39879378; settings: PAMPA, cited from earlier work
Caco-2 cells [3] = system: Caco-2 cells; design: method as in PMID 39879378; settings: Caco-2, in 0.2% DMSO, 24 h and 48 h; cited from earlier work
HepG2 cells [4] = system: HepG2 cells; design: method as in PMID 39879378; settings: HepG2, in 0.2% DMSO, 24 h and 48 h; cited from earlier work
[5] = Bioconversion of prodrugs in rat plasma; type: in vitro ADME; settings: 37 °C; for half-life at 100 μM / Prodrug bioconversion half-life (Rat plasma): 100 μM prodrug; for half-life at 100 μM: pooled rat plasma; for Prodrug bioconversion half-life (Rat plasma): Figure 3E
Procedure: (§1) Conversion of the respective prodrugs to the parent drug A190 was assessed in pooled rat and rabbit plasma. Following pre-incubation of plasma at 37 °C for 5 min, stock solution of each prodrug (10 mM) was spiked into the plasma to reach a final concentration of 100 μM. The mixture was incubated at 37 °C, 200 rpm on a temperature-controlled orbital shaker. Incubation mixture (200 μL) was withdrawn at pre-determined time points, and the reaction was terminated by the addition of 700 μL of ice cold ACN. 100 μL of internal standard (0.5 μg/mL of fenofibric acid) was then spiked, and the samples were vortexed and centrifuged at 10,000× g for 10 min. The resulting supernatants were collected and filtered using PTFE filters and injected into HPLC-UV system. The LC system was a reverse phased Shimadzu Prominence (Kyoto, Japan) using a Pursuit 5 C18 column. Isocratic separation was performed with mobile phase consisting of ACN/water (80/20 v/v) containing 0.1% trifluoroacetic acid and monitored at a UV detection of 227 nm.

[6] = Bioconversion of prodrugs in rabbit plasma; type: in vitro ADME; settings: 37 °C; for half-life at 100 μM / Prodrug bioconversion half-life (Rabbit plasma): 100 μM prodrug; for half-life at 100 μM: pooled rabbit plasma; for Prodrug bioconversion half-life (Rabbit plasma): Figure 3E
Procedure: as §1

[7] = Chemical hydrolysis stability in PBS pH 7.4; type: physicochemical; settings: PBS pH 7.4, 37 °C, 100 μM
Procedure: Chemical hydrolysis stability of each prodrug was assessed in a physiological pH 7.4 using phosphate buffered saline solution (PBS) as previously described. After preincubation of PBS solution at 37 °C for 5 min, stock solution of each prodrug (10 mM) was spiked to a final concentration of 100 μM. The samples were then incubated at 37 °C on a temperature-controlled orbital shaker operating at 200 rpm. At predetermined time points, 200 μL of incubation mixture was withdrawn and quenched with 100 μL of internal standard (0.5 μg/mL of fenofibric acid) and 700 μL ice cold ACN. Drug concentration was analyzed using HPLC-UV method as described earlier to assess the amount of prodrug recovered compared to the starting timepoint.

Aqueous solubility = type: physicochemical; settings: thermodynamic from solid; deionized water, 25 °C, 48 h equilibrium
Procedure: Aqueous solubility of each prodrug was assessed using deionized water. In brief, an excess amount of each prodrug was placed in a stoppered vial containing 1 mL of water. Each sample was vortexed and kept in an isothermal shaker maintained at 25 ± 1.0 °C to reach equilibrium for 48 h. The resulting mixture was centrifuged at 4000× g for 15 min, and the supernatant was collected and diluted with ACN followed by filtration with a 0.22 μm filter. The drug concentrations for all prodrugs were measured using HPLC-UV. Chromatographic separation was achieved using an Agilent Pursuit XRs 5 C18 column (250 × 4.6 mm) with a UV-detector system. The mobile phase consisted of ACN and water, both containing 0.1% trifluoroacetic acid in a ratio of 80:20 v/v, with a flow rate of 1 mL/min at 25 °C.

[8] = Solubility in microemulsion excipients; type: physicochemical; settings: for solubility at 72 h: thermodynamic from solid, 25 °C
Procedure: Enhancement of drug solubility is the primary factor considered when evaluating ME components. To determine the solubility of A190-PD-60, an excess amount of A190-PD-60 was added to 1 g of each of the tested oils, surfactants and co-surfactants in glass vials with stoppers. A190-PD-60 and excipients were mixed together and vortexed. The mixtures were kept at a temperature of 25 ± 1.0 °C in an isothermal shaker for 72 h to achieve equilibrium. The mixtures were then centrifuged at 10,000× g for 15 min. The resulting supernatants were filtered using […] membrane filters and concentrations of A190-PD-60 in the filtrates were quantified via HPLC-UV analysis. Oils, emulsifiers, and co-emulsifiers with the highest solubilities were chosen for further miscibility analysis. For this, 2 mL of the selected excipients were mixed and vortexed for 10 min, then allowed to equilibrate for 1 h. The resulting mixtures were visually inspected for transparency and phase separation.

[9] = Parallel artificial membrane permeability assay (PAMPA); type: in vitro ADME; settings: PBS pH 6.8, 200 µg/mL donor, 5 h, room temperature
Procedure: Parallel artificial membrane permeability assay (PAMPA) is a widely used screening method to predict the passive intestinal permeability using a phospholipid coated lipophilic membrane which simulates the properties of the intestinal wall. The in vitro intestinal membrane permeability of free A190-PD-60 (dispersed in PBS pH 6.8), A190-PD-60 dispersion (dispersed in a mixture of 1:1 v/v methylcellulose/Tween 80), and A190-PD-60-ME were evaluated using a PAMPA plate (BD BioSciences, San Jose, CA, USA), as described previously. The samples for donor chamber were prepared by diluting free A190-PD-60, A190-PD-60 dispersion, and A190-PD-60-ME with PBS pH 6.8 to a final concentration of 200 µg/mL. […] The concentration of A190-PD-60 which permeated into the acceptor chamber was measured using a HPLC-UV system. The effective permeability coefficient (Pe) was then calculated using the following equation:Pe = −ln(1 − CA[t]/Cequilibrium)/(A × [1/VD + 1/VA] × t)(1) where Pe is the permeability (cm/s), A is the effective filter area (0.228 cm^2), VD is the volume of the donor well (0.2 mL), VA is the volume of the receptor well (0.3 mL), t is the total time of incubation in seconds, CA(t) denotes the concentration of drug in the receptor well at time t, and Cequilibrium represents (CD[t] × VD + CA[t] × VA)/(VD + VA), where CD(t) denotes the concentration of drug in the donor well at time t.

Caco-2 cells [10] = assay: MTT cell viability assay, Caco-2; type: cell-based, human; settings: Caco-2, 50 µM, 24 h and 48 h
Procedure: (§2) To evaluate the cytotoxicity of free A190-PD-60 (in 0.2% DMSO in DMEM), vehicle microemulsion, and A190-PD-60-ME against Caco-2 cells and HepG2 cells, an MTT assay using 3-(4,5-dimethylthiazol-2-yl)-2,5-diphenyltetrazolium bromide was performed as described before. Caco-2 and HepG2 cells were first cultured in DMEM supplemented with 10% FBS, penicillin (100 U/mL), and streptomycin (100 μg/mL) at 37 °C in a 5% CO2 humidified incubator. Upon reaching confluence, cells were trypsinized and seeded at 10 × 10^4 cells/well in 96-well plates. After 48 h, the medium was replaced with fresh dilutions of free A190-PD-60, vehicle microemulsion, or A190-PD-60-ME (0.1–50 µM) in DMEM. Controls included untreated cells and cells treated with 0.2% DMSO in DMEM. Following 24 h and 48 h incubation, the medium was replaced with 100 µL of MTT solution (5 mg/mL in PBS) and incubated for 3 h. The supernatant was then removed, and formazan crystals were dissolved in 100 µL DMSO. Absorbance was measured at 540 nm, and cell viability (%) was calculated as (OD of samples/OD of control) × 100.

HepG2 cells [11] = assay: MTT cell viability assay, HepG2; type: cell-based, human; settings: HepG2, 50 µM, 24 h and 48 h
Procedure: as §2

[12] = BCS classification from solubility and PAMPA permeability; settings: predicted from low solubility and low permeability

Structure (SMILES): Cc1cc(CNc2cccc(C(=O)O)c2)ccc1OCc1ccc(F)cc1 [A190, 3-((4-((4-fluorobenzyl)oxy)-3-methylbenzyl)amino)benzoic acid]
subtype selectivity (PPARα; PPAR-α over γ/δ isoforms): > 2700 fold
EC50 (PPARα; PPARα agonism): < 40 nM
microsomal metabolic stability [1]: acceptable
CYP450 liability (CYP450): absence
hERG-related cardiotoxicity (hERG): absence
effective permeability (Pe), dispersion form ([2]; dispersion form): 0.13 ± 0.04 × 10^−6 cm/s
effective permeability (Pe), A190 in PBS ([2]; in PBS): 0.09 ± 0.02 × 10^−6 cm/s
concentration up to which safe (Caco-2 cells [3]): < 50 µM
concentration up to which safe (HepG2 cells [4]): < 50 µM

Structure (SMILES): Cc1cc(CNc2cccc(C(=O)OC(C)C)c2)ccc1OCc1ccc(F)cc1 [A190-PD-154, Isopropyl 3-((4-((4-Fluorobenzyl)oxy)-3-Methylbenzyl)amino)benzoate]
half-life at 100 μM [5]: 6.8 h
Prodrug bioconversion half-life (Rat plasma) [5]: 6.8 h
half-life at 100 μM [6]: 1.4 h
Prodrug bioconversion half-life (Rabbit plasma) [6]: 1.4 h
drug remaining at 2 h [7]: 10%

Now from value to compound, other results behind:

half-life at 100 μM [5]: 9.6 h
original concentration retained after 120 min in rat plasma ([5]; 100 μM, 120 min): ≥ 80%
Prodrug bioconversion half-life (Rat plasma) [5]: 9.6 h
half-life at 100 μM [6]: 7.2 h
original concentration retained after 120 min in rabbit plasma ([6]; 100 μM, 120 min): ≥ 80%
Prodrug bioconversion half-life (Rabbit plasma) [6]: 7.2 h
drug remaining at 2 h [7]: about 40%
Structure (SMILES): COC(=O)c1cccc(NCc2ccc(OCc3ccc(F)cc3)c(C)c2)c1 [A190-PD-9, Methyl 3-((4-((4-Fluorobenzyl)oxy)-3-Methylbenzyl)amino)benzoate]

half-life at 100 μM [5]: 2.6 h
Prodrug bioconversion half-life (Rat plasma) [5]: 2.6 h
half-life at 100 μM [6]: 8.2 h
Prodrug bioconversion half-life (Rabbit plasma) [6]: 8.2 h
drug remaining at 2 h [7]: 10%
Structure (SMILES): CCOC(=O)c1cccc(NCc2ccc(OCc3ccc(F)cc3)c(C)c2)c1 [A190-PD-14, Ethyl 3-((4-((4-Fluorobenzyl)oxy)-3-Methylbenzyl)amino)benzoate]

solubility at 48 h (Aqueous solubility): 1.4 ± 0.23 µg/mL (≈ 0.00293 mM)
half-life at 100 μM [5]: 0.3 h
Prodrug bioconversion half-life (Rat plasma) [5]: 0.3 h
half-life at 100 μM [6]: 0.5 h
Prodrug bioconversion half-life (Rabbit plasma) [6]: 0.5 h
drug remaining at 2 h [7]: over 80%
solubility in Capryol 90 relative to Maisine oil [8]: 13.9 fold
solubility in Capryol 90 relative to oleic acid [8]: 4.8 fold
solubility at 72 h ([8]; Capryol 90, oil or lipid, read-out: Solubility in Capryol 90): 4450 ± 310 µg/mL (≈ 9.32 mM)
solubility at 72 h ([8]; Cremophor EL, organic solvent or mixture, read-out: Solubility in Cremophor EL): 9050 ± 40 µg/mL (≈ 19 mM)
solubility at 72 h ([8]; Labrafil M, oil or lipid, read-out: Solubility in Labrafil M): 6580 ± 190 µg/mL (≈ 13.8 mM)
solubility at 72 h ([8]; Lauroglycol FCC, oil or lipid, read-out: Solubility in Lauroglycol FCC): 4590 ± 50 µg/mL (≈ 9.61 mM)
solubility at 72 h ([8]; Maisine oil, oil or lipid, read-out: Solubility in Maisine oil): 320 ± 300 µg/mL (≈ 0.67 mM)
solubility at 72 h ([8]; Oleic acid, oil or lipid, read-out: Solubility in Oleic acid): 920 ± 40 µg/mL (≈ 1.93 mM)
solubility at 72 h ([8]; Peceol, oil or lipid, read-out: Solubility in Peceol): 2170 ± 70 µg/mL (≈ 4.54 mM)
solubility at 72 h ([8]; Polypropylene glycol, organic solvent or mixture, read-out: Solubility in Polypropylene glycol): 3790 ± 620 µg/mL (≈ 7.94 mM)
solubility at 72 h ([8]; Transcutol HP, organic solvent or mixture, read-out: Solubility in Transcutol HP): 14100 ± 140 µg/mL (≈ 29.5 mM)
solubility at 72 h ([8]; Tween 80, organic solvent or mixture, read-out: Solubility in Tween 80): 9170 ± 70 µg/mL (≈ 19.2 mM)
Effective Permeability Across Artificial Membrane (Pe) [9]: < 0.1 ×10^−6, cm/s
Effective Permeability Across Artificial Membrane (Pe) ([9]; listed as A190-PD-60 in PBS): BLD
BCS class [12]: BCS Class IV
Structure (SMILES): Cc1cc(CNc2cccc(C(=O)OCc3oc(=O)oc3C)c2)ccc1OCc1ccc(F)cc1 [A190-PD-60, (5-Methyl-2-oxo-1,3-dioxol-4-yl)methyl3-((4-((4-Fluorobenzyl)oxy)-3-methylbenzyl)amino)benzoate]
cytotoxicity at highest tested concentration (Caco-2 cells [10]): no significant cytotoxicity
cytotoxicity at highest tested concentration (HepG2 cells [11]): no significant cytotoxicity
